Test results as given in publication PMC11079024, “Identification of a family of species-selective complex I inhibitors as potential anthelmintics” (Nature Communications, 2024).
Like-named read-outs stand apart in the source and are kept apart here.

Key:
[1] = biological target: C. elegans (N2) complex I (NADH:ubiquinone oxidoreductase) (Caenorhabditis elegans, UniProt P24887+Q93873+Q94360); experiment: biochemical; assay type: biochemical; conditions: for Log IC50 C. elegans complex I: log10 of IC50 in µM
Outline: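 Mitochondria from liquid-cultured adults were freeze-thawed thrice before the 15-min DCIP-coupled NADH oxidation read.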

[2] = biological target: B. taurus (heart) complex I (Bos taurus, UniProt P03887+P17694+P42026); experiment: biochemical; assay type: biochemical; conditions: for IC50: B. taurus heart mitochondria, estimated from fitted dose-response curves, read-out: B. taurus Complex I IC50; for Log IC50 B. taurus complex I: log10 of IC50 in µM, B. taurus mitochondria
Outline: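 Complex I activity followed as DCIP reduction (600 nm, 30 s reads, 15 min) with 80 μM NADH and 60 μM decylubiquinone in 25 mM KPi pH 7.5 containing 2 μM antimycin A and 2 mM KCN. Freeze-thawed mouse or bovine heart mitochondria at 0.2 mg/mL; initial-rate percent of solvent control, single-point 100 μM or dose-response.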

[3] = in vitro complex I dose response on C. elegans mitochondria, average of at least two biological replicates, fit in R (DRC), read-out: IC50 C. elegans complex I
[4] = wild-type (N2) mitochondria, read-out: C. elegans Complex I IC50
[5] = wild-type C. elegans mitochondria, estimated from fitted dose-response curves, read-out: C. elegans Complex I IC50

Sequence of C. elegans (N2) complex I (NADH:ubiquinone oxidoreductase) (Q94360 17-199): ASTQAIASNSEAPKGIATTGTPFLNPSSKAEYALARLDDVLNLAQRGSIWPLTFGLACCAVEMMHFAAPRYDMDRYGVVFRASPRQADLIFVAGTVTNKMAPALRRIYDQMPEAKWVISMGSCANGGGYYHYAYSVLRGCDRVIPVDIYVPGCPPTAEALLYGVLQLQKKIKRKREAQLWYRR
Sequence of C. elegans (N2) complex I (NADH:ubiquinone oxidoreductase) (P24887 whole entry): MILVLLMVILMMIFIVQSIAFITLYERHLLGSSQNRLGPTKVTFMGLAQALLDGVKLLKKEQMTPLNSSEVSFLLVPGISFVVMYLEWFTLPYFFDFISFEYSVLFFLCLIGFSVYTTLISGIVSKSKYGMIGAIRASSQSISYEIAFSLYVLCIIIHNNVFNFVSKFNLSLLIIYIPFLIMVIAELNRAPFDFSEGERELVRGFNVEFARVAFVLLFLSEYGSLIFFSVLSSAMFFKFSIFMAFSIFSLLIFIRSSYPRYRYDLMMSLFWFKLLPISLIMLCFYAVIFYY
Sequence of C. elegans (N2) complex I (NADH:ubiquinone oxidoreductase) (Q93873 31-482): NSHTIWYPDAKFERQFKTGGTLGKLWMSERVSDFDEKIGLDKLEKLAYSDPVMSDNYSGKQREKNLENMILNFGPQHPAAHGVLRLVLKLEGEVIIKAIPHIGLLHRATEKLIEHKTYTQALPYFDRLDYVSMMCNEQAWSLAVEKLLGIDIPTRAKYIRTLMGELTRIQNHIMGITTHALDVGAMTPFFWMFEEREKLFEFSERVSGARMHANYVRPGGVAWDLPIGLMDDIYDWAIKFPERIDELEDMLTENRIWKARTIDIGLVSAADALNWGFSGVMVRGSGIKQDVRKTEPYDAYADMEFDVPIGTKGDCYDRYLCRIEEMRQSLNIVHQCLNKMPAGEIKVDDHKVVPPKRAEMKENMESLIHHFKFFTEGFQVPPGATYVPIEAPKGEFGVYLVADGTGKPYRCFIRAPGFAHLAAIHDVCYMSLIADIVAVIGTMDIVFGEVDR
Sequence of B. taurus (heart) complex I (P03887 whole entry): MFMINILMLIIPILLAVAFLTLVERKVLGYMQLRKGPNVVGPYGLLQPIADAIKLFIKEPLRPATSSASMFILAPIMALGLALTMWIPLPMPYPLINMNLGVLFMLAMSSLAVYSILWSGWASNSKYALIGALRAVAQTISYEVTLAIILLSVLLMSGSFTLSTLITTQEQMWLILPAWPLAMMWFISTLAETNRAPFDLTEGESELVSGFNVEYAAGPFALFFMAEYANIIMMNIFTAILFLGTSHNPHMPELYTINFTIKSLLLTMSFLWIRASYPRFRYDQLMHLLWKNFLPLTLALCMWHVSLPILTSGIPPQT
Sequence of B. taurus (heart) complex I (P17694 34-463): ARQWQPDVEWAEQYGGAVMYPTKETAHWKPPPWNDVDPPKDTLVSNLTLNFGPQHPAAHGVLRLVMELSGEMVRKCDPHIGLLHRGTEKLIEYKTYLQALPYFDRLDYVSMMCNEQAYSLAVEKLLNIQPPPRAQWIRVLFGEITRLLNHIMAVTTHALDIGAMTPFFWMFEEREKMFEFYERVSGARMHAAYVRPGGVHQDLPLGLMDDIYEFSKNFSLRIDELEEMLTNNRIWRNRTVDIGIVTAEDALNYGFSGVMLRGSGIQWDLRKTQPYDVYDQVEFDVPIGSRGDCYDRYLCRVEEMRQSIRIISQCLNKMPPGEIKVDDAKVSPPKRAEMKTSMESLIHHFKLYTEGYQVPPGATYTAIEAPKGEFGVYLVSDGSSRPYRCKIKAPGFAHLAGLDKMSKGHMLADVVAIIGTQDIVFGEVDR
Sequence of B. taurus (heart) complex I (P42026 38-216): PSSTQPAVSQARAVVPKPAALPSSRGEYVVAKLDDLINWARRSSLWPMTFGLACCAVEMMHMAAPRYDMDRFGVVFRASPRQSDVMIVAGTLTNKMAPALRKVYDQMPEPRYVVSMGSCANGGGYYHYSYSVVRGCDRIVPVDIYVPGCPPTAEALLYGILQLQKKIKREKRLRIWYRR

`Cc1ccccc1OCCCCn1cnc2ccccc21` [Compound 7732524] showed a remaining activity at 0.0001 µM ([1]; C. elegans mitochondria, 0.0001 µM, Mean, read-out: in vitro complex I activity relative to solvent control) of 109%, a remaining activity at 0.0005 µM ([1]; C. elegans mitochondria, 0.0005 µM, Mean, read-out: in vitro complex I activity relative to solvent control) of 117% and a remaining activity at 0.001 µM ([1]; C. elegans mitochondria, 0.001 µM, Mean, read-out: in vitro complex I activity relative to solvent control) of 115%. For the same compound, the remaining activity at 0.0025 µM ([1]; C. elegans mitochondria, 0.0025 µM, Mean, read-out: in vitro complex I activity relative to solvent control) was 106%, the remaining activity at 0.005 µM ([1]; C. elegans mitochondria, 0.005 µM, Mean, read-out: in vitro complex I activity relative to solvent control) was 87.1% and the remaining activity at 0.013 µM ([1]; C. elegans mitochondria, 0.013 µM, Mean, read-out: in vitro complex I activity relative to solvent control) was 95.4%. For the same compound, the remaining activity at 0.025 µM ([1]; C. elegans mitochondria, 0.025 µM, Mean, read-out: in vitro complex I activity relative to solvent control) was 84.9%, the remaining activity at 0.063 µM ([1]; C. elegans mitochondria, 0.063 µM, Mean, read-out: in vitro complex I activity relative to solvent control) was 60.5% and the remaining activity at 0.063 µM ([1]; C. elegans mitochondria, 0.063 µM, single replicate, read-out: in vitro complex I activity relative to solvent control) was 65%. It also gave a remaining activity at 0.125 µM ([1]; C. elegans mitochondria, 0.125 µM, Mean, read-out: in vitro complex I activity relative to solvent control) of 45.4%, a remaining activity at 0.125 µM ([1]; C. elegans mitochondria, 0.125 µM, single replicate, read-out: in vitro complex I activity relative to solvent control) of 44.7% and a remaining activity at 0.313 µM ([1]; C. elegans mitochondria, 0.313 µM, Mean, read-out: in vitro complex I activity relative to solvent control) of 25.3%. The remaining activity at 0.313 µM ([1]; C. elegans mitochondria, 0.313 µM, single replicate, read-out: in vitro complex I activity relative to solvent control) was 21%, the remaining activity at 0.625 µM ([1]; C. elegans mitochondria, 0.625 µM, Mean, read-out: in vitro complex I activity relative to solvent control) was 10.1% and the remaining activity at 0.625 µM ([1]; C. elegans mitochondria, 0.625 µM, single replicate, read-out: in vitro complex I activity relative to solvent control) was 12.2%. The remaining activity at 1.5 µM ([1]; C. elegans mitochondria, 1.5 µM, Mean, read-out: in vitro complex I activity relative to solvent control) was 2.78%, the remaining activity at 3 µM ([1]; C. elegans mitochondria, 3 µM, Mean, read-out: in vitro complex I activity relative to solvent control) was 0.645% and the remaining activity at 15 µM ([1]; C. elegans mitochondria, 15 µM, Mean, read-out: in vitro complex I activity relative to solvent control) was 0.827%. For the same compound, the remaining activity at 37.5 µM ([1]; C. elegans mitochondria, 37.5 µM, Mean, read-out: in vitro complex I activity relative to solvent control) was 0.871%, the remaining activity at 75 µM ([1]; C. elegans mitochondria, 75 µM, Mean, read-out: in vitro complex I activity relative to solvent control) was 6.44% and the activity at 0.0001 µM ([1]; Dose 0.0001 µM, read-out: C. elegans mitochondrial complex I activity) was 130%. The activity at 0.0005 µM ([1]; Dose 0.0005 µM, read-out: C. elegans mitochondrial complex I activity) was 145%, the activity at 0.001 µM ([1]; Dose 0.001 µM, read-out: C. elegans mitochondrial complex I activity) was 142% and the activity at 0.0025 µM ([1]; Dose 0.0025 µM, read-out: C. elegans mitochondrial complex I activity) was 138%. It also gave an activity at 0.005 µM ([1]; Dose 0.005 µM, read-out: C. elegans mitochondrial complex I activity) of 126%, an activity at 0.013 µM ([1]; Dose 0.013 µM, read-out: C. elegans mitochondrial complex I activity) of 120% and an activity at 0.025 µM ([1]; Dose 0.025 µM, read-out: C. elegans mitochondrial complex I activity) of 94.3%. For the same compound, the activity at 0.063 µM ([1]; Dose 0.063 µM, read-out: C. elegans mitochondrial complex I activity) was 78.2%, the activity at 0.125 µM ([1]; Dose 0.125 µM, read-out: C. elegans mitochondrial complex I activity) was 53.5% and the activity at 0.313 µM ([1]; Dose 0.313 µM, read-out: C. elegans mitochondrial complex I activity) was 30.1%. It also gave an activity at 0.625 µM ([1]; Dose 0.625 µM, read-out: C. elegans mitochondrial complex I activity) of 10.6%, an activity at 1.5 µM ([1]; Dose 1.5 µM, read-out: C. elegans mitochondrial complex I activity) of 3.27% and an activity at 3 µM ([1]; Dose 3 µM, read-out: C. elegans mitochondrial complex I activity) of 1.97%. The activity at 15 µM ([1]; Dose 15 µM, read-out: C. elegans mitochondrial complex I activity) was 1.08%, the activity at 37.5 µM ([1]; Dose 37.5 µM, read-out: C. elegans mitochondrial complex I activity) was 3.31% and the activity at 75 µM ([1]; Dose 75 µM, read-out: C. elegans mitochondrial complex I activity) was 6.44%. The remaining activity at 0.0001 µM ([1]; dose 0.0001 µM, wild-type C. elegans, mean of replicates, read-out: in vitro complex I activity relative to solvent control, Mean) was 109%, the remaining activity at 0.0005 µM ([1]; dose 0.0005 µM, wild-type C. elegans, mean of replicates, read-out: in vitro complex I activity relative to solvent control, Mean) was 117% and the remaining activity at 0.001 µM ([1]; dose 0.001 µM, wild-type C. elegans, mean of replicates, read-out: in vitro complex I activity relative to solvent control, Mean) was 115%. It also gave a remaining activity at 0.0025 µM ([1]; dose 0.0025 µM, wild-type C. elegans, mean of replicates, read-out: in vitro complex I activity relative to solvent control, Mean) of 106%, a remaining activity at 0.005 µM ([1]; dose 0.005 µM, wild-type C. elegans, mean of replicates, read-out: in vitro complex I activity relative to solvent control, Mean) of 87.1% and a remaining activity at 0.013 µM ([1]; dose 0.013 µM, wild-type C. elegans, mean of replicates, read-out: in vitro complex I activity relative to solvent control, Mean) of 95.4%. The remaining activity at 0.025 µM ([1]; dose 0.025 µM, wild-type C. elegans, mean of replicates, read-out: in vitro complex I activity relative to solvent control, Mean) was 84.9%, the remaining activity at 0.063 µM ([1]; dose 0.063 µM, wild-type C. elegans, mean of replicates, read-out: in vitro complex I activity relative to solvent control, Mean) was 60.5% and the remaining activity at 0.063 µM ([1]; dose 0.063 µM, wild-type C. elegans, single replicate, read-out: in vitro complex I activity relative to solvent control, individual replicate) was 65%. For the same compound, the remaining activity at 0.125 µM ([1]; dose 0.125 µM, wild-type C. elegans, mean of replicates, read-out: in vitro complex I activity relative to solvent control, Mean) was 45.4%, the remaining activity at 0.125 µM ([1]; dose 0.125 µM, wild-type C. elegans, single replicate, read-out: in vitro complex I activity relative to solvent control, individual replicate) was 44.7% and the remaining activity at 0.313 µM ([1]; dose 0.313 µM, wild-type C. elegans, mean of replicates, read-out: in vitro complex I activity relative to solvent control, Mean) was 25.3%. The remaining activity at 0.313 µM ([1]; dose 0.313 µM, wild-type C. elegans, single replicate, read-out: in vitro complex I activity relative to solvent control, individual replicate) was 21%, the remaining activity at 0.625 µM ([1]; dose 0.625 µM, wild-type C. elegans, mean of replicates, read-out: in vitro complex I activity relative to solvent control, Mean) was 10.1% and the remaining activity at 0.625 µM ([1]; dose 0.625 µM, wild-type C. elegans, single replicate, read-out: in vitro complex I activity relative to solvent control, individual replicate) was 12.2%. For the same compound, the remaining activity at 1.5 µM ([1]; dose 1.5 µM, wild-type C. elegans, mean of replicates, read-out: in vitro complex I activity relative to solvent control, Mean) was 2.78%, the remaining activity at 3 µM ([1]; dose 3 µM, wild-type C. elegans, mean of replicates, read-out: in vitro complex I activity relative to solvent control, Mean) was 0.645% and the remaining activity at 15 µM ([1]; dose 15 µM, wild-type C. elegans, mean of replicates, read-out: in vitro complex I activity relative to solvent control, Mean) was 0.827%. For the same compound, the remaining activity at 37.5 µM ([1]; dose 37.5 µM, wild-type C. elegans, mean of replicates, read-out: in vitro complex I activity relative to solvent control, Mean) was 0.871%, the remaining activity at 75 µM ([1]; dose 75 µM, wild-type C. elegans, mean of replicates, read-out: in vitro complex I activity relative to solvent control, Mean) was 6.44% and the IC50 [1, 3] was 140 nM. The “Log IC50 C. elegans complex I” value ([1]; C. elegans mitochondria) was -0.85 µM, the IC50 [1, 4] was 140 nM and the IC50 ([1]; wild-type (N2) mitochondria, read-out: C. elegans complex I IC50) was 104 nM. The IC50 [1, 5] was 140 nM, the IC50 [2] was 310 nM and the activity at 0.0001 µM ([2]; Dose 0.0001 µM, read-out: B. taurus mitochondrial complex I activity) was 96.6%. The activity at 0.0005 µM ([2]; Dose 0.0005 µM, read-out: B. taurus mitochondrial complex I activity) was 102%, the activity at 0.001 µM ([2]; Dose 0.001 µM, read-out: B. taurus mitochondrial complex I activity) was 97% and the activity at 0.0025 µM ([2]; Dose 0.0025 µM, read-out: B. taurus mitochondrial complex I activity) was 93.8%. It also gave an activity at 0.005 µM ([2]; Dose 0.005 µM, read-out: B. taurus mitochondrial complex I activity) of 78.2%, an activity at 0.013 µM ([2]; Dose 0.013 µM, read-out: B. taurus mitochondrial complex I activity) of 91.3% and an activity at 0.025 µM ([2]; Dose 0.025 µM, read-out: B. taurus mitochondrial complex I activity) of 85.2%. It also gave an activity at 0.063 µM ([2]; Dose 0.063 µM, read-out: B. taurus mitochondrial complex I activity) of 72.1%, an activity at 0.125 µM ([2]; Dose 0.125 µM, read-out: B. taurus mitochondrial complex I activity) of 69.1% and an activity at 0.313 µM ([2]; Dose 0.313 µM, read-out: B. taurus mitochondrial complex I activity) of 48.9%. It also gave an activity at 0.625 µM ([2]; Dose 0.625 µM, read-out: B. taurus mitochondrial complex I activity) of 30.4%, an activity at 1.5 µM ([2]; Dose 1.5 µM, read-out: B. taurus mitochondrial complex I activity) of 15.7% and an activity at 3 µM ([2]; Dose 3 µM, read-out: B. taurus mitochondrial complex I activity) of 9.12%. For the same compound, the activity at 15 µM ([2]; Dose 15 µM, read-out: B. taurus mitochondrial complex I activity) was 0.75%, the activity at 37.5 µM ([2]; Dose 37.5 µM, read-out: B. taurus mitochondrial complex I activity) was 1.46% and the activity at 75 µM ([2]; Dose 75 µM, read-out: B. taurus mitochondrial complex I activity) was 1.41%. The “Log IC50 B. taurus complex I” value [2] was -0.51 µM.

With `Nc1nc2ccccc2n1Cc1ccc(Br)cc1` [Compound 7313068] the IC50 [1, 3] was 340 nM, the “Log IC50 C. elegans complex I” value ([1]; C. elegans mitochondria) was -0.47 µM and the IC50 [1, 4] was 340 nM. The IC50 [1, 5] was 340 nM, the IC50 [2] was 1310 nM and the “Log IC50 B. taurus complex I” value [2] was 0.12 µM.
